Experimental findings from US11236046B2, “Substituted heterocyclic sulfonamide compounds useful as TRPA1 modulators” (Genentech, Inc., priority 2013, dated 2022) are described below.

Sequence of human TRPA1 (O75762 whole entry): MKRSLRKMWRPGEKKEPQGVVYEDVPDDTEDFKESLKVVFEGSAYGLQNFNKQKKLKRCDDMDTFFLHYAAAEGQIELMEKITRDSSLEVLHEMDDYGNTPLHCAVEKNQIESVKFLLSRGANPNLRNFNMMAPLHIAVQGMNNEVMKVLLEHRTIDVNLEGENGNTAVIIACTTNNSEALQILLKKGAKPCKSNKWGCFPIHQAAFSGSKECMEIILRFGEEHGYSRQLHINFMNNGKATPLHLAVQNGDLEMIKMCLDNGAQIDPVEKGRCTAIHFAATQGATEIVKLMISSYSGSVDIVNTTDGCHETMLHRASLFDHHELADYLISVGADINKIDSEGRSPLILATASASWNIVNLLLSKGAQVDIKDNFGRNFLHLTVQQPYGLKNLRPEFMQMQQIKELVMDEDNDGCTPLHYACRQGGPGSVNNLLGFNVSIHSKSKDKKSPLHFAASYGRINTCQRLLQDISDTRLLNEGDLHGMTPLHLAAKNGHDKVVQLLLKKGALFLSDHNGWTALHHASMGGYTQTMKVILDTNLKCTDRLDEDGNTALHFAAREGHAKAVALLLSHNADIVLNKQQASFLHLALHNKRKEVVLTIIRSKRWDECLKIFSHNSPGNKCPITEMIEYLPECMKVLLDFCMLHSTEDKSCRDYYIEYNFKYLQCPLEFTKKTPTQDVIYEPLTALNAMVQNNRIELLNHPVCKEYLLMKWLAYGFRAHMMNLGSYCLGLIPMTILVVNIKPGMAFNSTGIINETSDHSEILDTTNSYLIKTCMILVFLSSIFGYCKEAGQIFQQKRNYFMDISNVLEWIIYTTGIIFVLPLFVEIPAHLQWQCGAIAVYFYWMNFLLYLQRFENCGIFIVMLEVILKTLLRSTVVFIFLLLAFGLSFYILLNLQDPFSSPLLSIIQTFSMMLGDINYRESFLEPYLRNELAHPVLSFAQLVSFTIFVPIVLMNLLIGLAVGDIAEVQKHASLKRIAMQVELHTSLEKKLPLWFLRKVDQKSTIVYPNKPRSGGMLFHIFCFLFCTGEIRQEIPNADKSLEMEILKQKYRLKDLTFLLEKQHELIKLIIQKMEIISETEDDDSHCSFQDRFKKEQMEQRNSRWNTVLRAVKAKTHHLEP

The experiment addresses human TRPA1 (Homo sapiens (Human), UniProt O75762). Nature of the experiment: FLIPR Tetra calcium influx assay, block of cinnamaldehyde-induced calcium influx in CHO cells expressing TRPA1 (human). It counts as cell-based. As to conditions: 20 min compound incubation, 75 uM cinnamaldehyde (~EC80), Hill coefficient fixed to 1.5, read-out: hTRPA1 AUC IC50. As for the experimental part: IC50 Determinations of Exemplified Compounds.
IC50s (effective concentration) of compounds on the human and rat TRPA1 channels were determined using a FLIPR Tetra instrument. CHO cells expressing TRPA1 were plated into 384-well plates, incubated overnight at 37C, and loaded with BD calcium indicator dye for 1 hr at 37° C. followed by 15 minutes. at room temperature. The assay buffer was Hank's Balanced Salt Solution (HBSS) containing 20 mM HEPES (pH readjusted to 7.4) along with 0.02% BSA.
Following dye load and plate cool down, compounds were added to the cells using FLIPR Tetra. Plates were then incubated with compounds for 20 minutes at room temperature prior to adding agonist. Following this incubation, ˜EC80 concentration of cinnamaldehyde (75 uM for human TRPA1 and 45 uM for rat TRPA1) was added to active the channels and block of cinnamaldehyde induced calcium influx was measured.
Fixing the Hill coefficient will generally reduce variability of the IC50 determination. The IC50s were individually examined to make sure the MIN and MAX points were set correctly prior to validation of the results.
The IC50 is the concentration that gives 50% inhibition. On to `O=C(NCc1cc(-c2ccc(C(F)(F)F)cc2)ncn1)[C@@H]1C[C@H]2COC[C@H]2N1S(=O)(=O)c1ccc(F)cc1` (single isomer, unassigned) [Example 99], for which the IC50 was determined as 0.428 µM.

As to `O=C(NCc1cc(-c2ccc(C(F)(F)F)cc2)ncn1)[C@@H]1C[C@@H]2COC[C@@H]2N1S(=O)(=O)c1ccc(F)cc1` (single isomer, unassigned) [Example 100], the IC50 is 0.449 µM.

Consider `C[C@@H]1[C@@H](C(=O)NCc2cc(-c3ccc(C(F)(F)F)nc3)ncn2)N(S(=O)(=O)c2ccc(F)cc2)C[C@@H]1F` (single isomer, unassigned) [Example 106], for which the half-inhibitory concentration (IC50) stood at 0.28 µM.

As to `C[C@@]1(F)C[C@@H](C(=O)NCc2cc(-c3ccc(C(F)(F)F)nc3)ncn2)N(S(=O)(=O)c2ccc(F)cc2)C1` (single isomer, unassigned) [Example 107], the IC50 came out at 0.09 µM.

Turning to `O=C(NCc1cc(-c2ccc(C(F)(F)F)nc2)ncn1)[C@@H]1C[C@]2(CN1S(=O)(=O)c1ccc(F)cc1)CC2(F)F` (single isomer, unassigned) [Example 124], the IC50 came to 0.113 µM.

On to `C[C@@]1(C(=O)NCc2cc(-c3ccc(C(F)(F)F)cc3)ncn2)C[C@@H](F)CN1S(=O)(=O)c1ccc(F)cc1` (single isomer, unassigned) [Example 138], for which the IC50 stood at 0.025 µM.

As to `C[C@@]1(C(=O)NCc2cc(-c3ccc(C(F)(F)F)nc3)ncn2)C[C@@H](F)CN1S(=O)(=O)c1ccc(F)cc1` (single isomer, unassigned) [Example 142], the IC50 was 0.092 µM.

With `O=C(NCc1cc([C@H]2CC[C@H](C(F)(F)F)CC2)ncn1)[C@@H]1C[C@@H](F)CN1S(=O)(=O)c1ccc(F)cc1` (single isomer, unassigned) [Example 149], the IC50 amounted to 0.034 µM.

Regarding `N#Cc1ccc(-c2cnc(C(F)(F)F)nc2)cc1CNC(=O)[C@@H]1[C@@H](F)CCN1S(=O)(=O)c1ccc(F)cc1` [Example 38, (2R,3S)—N-([2-cyano-5-[2-(trifluoromethyl)pyrimidin-5-yl]phenyl]methyl)-3-fluoro-1-[(4-fluorobenzene)sulfonyl]pyrrolidine-2-carboxamide], the IC50 was 0.014 µM.

As to `C[C@@H]1CC[C@@H](C(=O)NCc2cc(-c3ccc(C(F)(F)F)nc3)ncn2)N1S(=O)(=O)c1ccc(F)cc1` [Example 39, (2S,5R)-1-[(4-fluorobenzene)sulfonyl]-5-methyl-N-([6-[6-(trifluoromethyl)pyridin-3-yl]pyrimidin-4-yl]methyl)pyrrolidine-2-carboxamide], the IC50 stood at 0.045 µM.

For `C[C@H]1CC[C@@H](C(=O)NCc2cc(-c3ccc(C(F)(F)F)nc3)ncn2)N1S(=O)(=O)c1ccc(F)cc1` [Example 41, (2S,5S)-1-[(4-fluorobenzene)sulfonyl]-5-methyl-N-([6-[6-(trifluoromethyl)pyridin-3-yl]pyrimidin-4-yl]methyl)pyrrolidine-2-carboxamide], the IC50 is 0.005 µM.

Take `Cc1cc(CNC(=O)[C@@H]2C[C@@H](F)CN2S(=O)(=O)c2ccc(F)cc2)cc(-c2cnc(C(F)(F)F)nc2)n1` [Example 43, (2S,4R)-4-fluoro-1-(4-fluorophenyl)sulfonyl-N-[[2-methyl-6-[2-(trifluoromethyl)pyrimidin-5-yl]-4-pyridyl]methyl]pyrrolidine-2-carboxamide]: the IC50 amounted to 0.047 µM.

Take `COc1nc(C(F)(F)F)ccc1-c1cc(F)cc(CNC(=O)[C@@H]2C[C@@H](F)CN2S(=O)(=O)c2ccc(F)cc2)c1` [Example 44, (2S,4R)-4-fluoro-N-([3-fluoro-5-[2-methoxy-6-(trifluoromethyl)pyridin-3-yl]phenyl]methyl)-1-[(4-fluorobenzene)sulfonyl]pyrrolidine-2-carboxamide]: the concentration for half-maximal inhibition (IC50) came out at 0.048 µM.

Take `C[C@@]1(F)C[C@@H](C(=O)NCc2cc(F)cc(-c3ccc(C(F)(F)F)nn3)c2)N(S(=O)(=O)c2ccc(F)cc2)C1` [Example 45, (2S,4R)-4-fluoro-1-(4-fluorophenyl)sulfonyl-N-[[3-fluoro-5-[6-(trifluoromethyl)pyridazin-3-yl]phenyl]methyl]-4-methyl-pyrrolidine-2-carboxamide]: the IC50 stood at 0.024 µM.

Regarding `C[C@@]1(F)C[C@@H](C(=O)NCc2cc(-c3ccc(OC(F)(F)F)cc3)ncn2)N(S(=O)(=O)c2ccc(F)cc2)C1` [Example 46, (2S,4R)-4-fluoro-1-((4-fluorophenyl)sulfonyl)-4-methyl-N-((6-(4-(trifluoromethoxy)phenyl)pyrimidin-4-yl)methyl)pyrrolidine-2-carboxamide], the concentration for half-maximal inhibition (IC50) stood at 0.02 µM.

With `C[C@@]1(F)C[C@@H](C(=O)NCc2cc(F)cc(-c3cnc(C(F)(F)F)cn3)c2)N(S(=O)(=O)c2ccc(F)cc2)C1` [Example 47, (2S,4R)-4-fluoro-N-(3-fluoro-5-(5-(trifluoromethyl)pyrazin-2-yl)benzyl)-1-((4-fluorophenyl)sulfonyl)-4-methylpyrrolidine-2-carboxamide], the IC50 turned out to be 0.011 µM.

In the case of `Cc1cc(-c2cnc(C(F)(F)F)nc2)cc(CNC(=O)[C@@H]2C[C@@H](F)CN2S(=O)(=O)c2ccc(F)cc2)n1` [Example 48, (2S,4R)-4-fluoro-1-(4-fluorophenyl)sulfonyl-N-[[6-methyl-4-[2-(trifluoromethyl)pyrimidin-5-yl]-2-pyridyl]methyl]pyrrolidine-2-carboxamide], the IC50 is 0.152 µM.

In the case of `O=C(NCc1cc(-c2ccc(C(F)(F)F)cn2)cc(F)n1)[C@@H]1C[C@@H](F)CN1S(=O)(=O)c1ccc(F)cc1` [Example 49, (2S,4R)-4-fluoro-N-([6-fluoro-4-[5-(trifluoromethyl)pyridin-2-yl]pyridin-2-yl]methyl)-1-[(4-fluorobenzene)sulfonyl]pyrrolidine-2-carboxamide], the IC50 was found to be 0.009 µM.

For `N#Cc1nn(-c2ccc(C(F)(F)F)cc2)cc1CNC(=O)[C@@H]1C[C@@H](F)CN1S(=O)(=O)c1ccc(F)cc1` [Example 50, (2S,4R)—N-([3-cyano-1-[4-(trifluoromethyl)phenyl]-1H-pyrazol-4-yl]methyl)-4-fluoro-1-[(4-fluorobenzene)sulfonyl]pyrrolidine-2-carboxamide], the IC50 turned out to be 0.06 µM.

Turning to `O=C(NCc1cc(-c2ccc(C(F)(F)F)nc2)ncn1)C1C2CC(CC2F)N1S(=O)(=O)c1ccc(F)cc1` (stereo not shown) [Example 51, 5-fluoro-2-(4-fluorophenyl)sulfonyl-N-[[6-[6-(trifluoromethyl)-3-pyridyl]pyrimidin-4-yl]methyl]-2-azabicyclo[2.2.1]heptane-3-carboxamide], the IC50 stood at 0.052 µM.

`C[C@@]1(F)C[C@@H](C(=O)NCc2cc(F)cc(-c3cnc(C(F)(F)F)nc3)c2)N(S(=O)(=O)c2ccc(F)cc2)C1` [Example 52, (2S,4R)-4-fluoro-N-(3-fluoro-5-(2-(trifluoromethyl)pyrimidin-5-yl)benzyl)-1-((4-fluorophenyl)sulfonyl)-4-methylpyrrolidine-2-carboxamide]: the IC50 was determined as 0.016 µM.

Take `O=C(NCc1cc(-c2cnc(C(F)(F)F)nc2)ccn1)[C@@H]1C[C@@H](F)CN1S(=O)(=O)c1ccc(F)cc1` [Example 53, (2S,4R)-4-fluoro-1-(4-fluorophenyl)sulfonyl-N-[[4-[2-(trifluoromethyl)pyrimidin-5-yl]-2-pyridyl]methyl]pyrrolidine-2-carboxamide]: the IC50 came to 0.411 µM.

For the molecule `O=C(NCc1cc(-c2cnc(C(F)(F)F)cn2)ccc1F)[C@@H]1C[C@@H](F)CN1S(=O)(=O)c1ccc(F)cc1` [Example 54, (2S,4R)-4-fluoro-N-(2-fluoro-5-(5-(trifluoromethyl)pyrazin-2-yl)benzyl)-1-((4-fluorophenyl)sulfonyl)pyrrolidine-2-carboxamide], the concentration for half-maximal inhibition (IC50) was 0.013 µM.

Take `O=C(NCc1cc(-c2ccc(C(F)F)cc2)ncn1)[C@@H]1[C@@H](F)CCN1S(=O)(=O)c1ccc(F)cc1` [Example 55, (2R,3S)—N-[[6-[4-(difluoromethyl)phenyl]pyrimidin-4-yl]methyl]-3-fluoro-1-(4-fluorophenyl)sulfonyl-pyrrolidine-2-carboxamide]: the concentration for half-maximal inhibition (IC50) was determined as 0.033 µM.

In the case of `O=C(NCc1cc(-c2cnc(C(F)(F)F)nc2)ccc1F)[C@@H]1C[C@@H](F)CN1S(=O)(=O)c1ccc(F)cc1` [Example 56, (2S,4R)-4-fluoro-N-(2-fluoro-5-(2-(trifluoromethyl)pyrimidin-5-yl)benzyl)-1-((4-fluorophenyl)sulfonyl)pyrrolidine-2-carboxamide], the half-maximal inhibitory concentration (IC50) is 0.011 µM.

In the case of `O=C(NCc1ccnc(-c2ccc(C(F)(F)F)cc2O)c1)[C@@H]1C[C@@H](F)CN1S(=O)(=O)c1ccc(F)cc1` [Example 57, (2S,4R)-4-fluoro-1-(4-fluorophenyl)sulfonyl-N-[[2-[2-hydroxy-4-(trifluoromethyl)phenyl]-4-pyridyl]methyl]pyrrolidine-2-carboxamide], the 50% inhibitory concentration (IC50) turned out to be 0.005 µM.

As for `COc1nn(-c2cnc(C(F)(F)F)cn2)cc1CNC(=O)[C@@H]1C[C@@H](F)CN1S(=O)(=O)c1ccc(F)cc1` [Example 58, (2S,4R)-4-fluoro-1-(4-fluorophenyl)sulfonyl-N-[[3-methoxy-1-[5-(trifluoromethyl)pyrazin-2-yl]pyrazol-4-yl]methyl]pyrrolidine-2-carboxamide], the IC50 was 0.014 µM.

For `O=C(NCc1cc(-c2ccc(C(F)F)c(F)c2)ncn1)[C@@H]1C[C@@H](F)CN1S(=O)(=O)c1ccc(F)cc1` [Example 59, (2S,4R)—N-[[6-[4-(difluoromethyl)-3-fluoro-phenyl]pyrimidin-4-yl]methyl]-4-fluoro-1-(4-fluorophenyl)sulfonyl-pyrrolidine-2-carboxamide], the IC50 worked out at 0.029 µM.
